From patent US10611750B2, “Tetrahydroquinoline compositions as bet bromodomain inhibitors” (FORMA Therapeutics, Inc., priority 2013, dated 2020) come the findings set out here.

In general, IC50 refers to the midpoint of a concentration-inhibition curve. Low readings indicate greater potency in that assay, high ones weaker potency in that assay.

Assay [1] deals with T1, BRD4 Bromodomain 1 (BRD4 BD1) (Homo sapiens, UniProt O60885).
T1 construct: 44-168 and BRD4 BD2
In words: AlphaScreen binding assay, BRD4 BD1. Particulars: His-tagged BRD4 BD1 50 nM, biotinylated H4 (1-21) K5/8/12/16 tetra-acetylated peptide 50 nM, compounds listed under IC50 range headings. In short, it runs like this:
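An AlphaScreen competition format was used with His-BRD4 BD1 or BD2 and biotin-H4 K5/8/12/16-acetyl peptide, each at matched final levels of 50 nM (BD1) or 100 nM (BD2). Incubation in HEPES/NaCl buffer with 0.1% BSA and 0.01% Triton X-100 ran ≥1 h before IC50 determination.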
(In general: Bead proximity is the source of the signal in Alpha formats.)

The target of assay [2] is T2, BRD4 Bromodomain 2 (BRD4 BD2) (Homo sapiens, UniProt O60885).
T2 construct: 333-460 were cloned, expressed, and purified to homogeneity
In words: AlphaScreen binding assay, BRD4 BD2. Particulars: His-tagged BRD4 BD2 100 nM, biotinylated H4 (1-21) K5/8/12/16 tetra-acetylated peptide 100 nM, compounds listed under IC50 range headings. As to the method:
The binding of Example compounds to BRD4 Bromodomain 1 and BRD4 Bromodomain 2 was assessed using 384-well AlphaScreen assay technology. His-epitope tagged BRD4 BD144-168 and BRD4 BD2333-460 were cloned, expressed, and purified to homogeneity. BRD4 BD1 and BRD4 BD2 binding and inhibition was assessed by monitoring the engagement of biotinylated Histone H4 (1-21) K5/8/12/16 tetra-acetylated peptide with the targets using the AlphaScreen technology (PerkinElmer). Specifically, in a 384-well black or white flat bottom plate, BRD4 BD1 (50 nM final) or BRD4 BD2 (100 nM final) was combined with peptide (50 nM final for BD1 or 100 nM final for BD2) in 50 mM HEPES (pH 7.3), 100 mM NaCl, 0.1% (w/v) BSA, and 0.01% (w/v) Triton X-100 either in the presence of DMSO (final 1.25% DMSO) or compound dilution series in DMSO. Alpha streptavidin donor beads and Nickel-chelate acceptor beads were added to a final concentration of 10 μg/ml each. After a minimum of 1 hour equilibration, plates were read on a BMG PHERAstar FS multi-label reader (BMG LabTech). The half maximal inhibitory concentration (IC50) values were calculated using IDBS Activity Base software with a four parameter logistic curve fit by the equation y=A+((B−A)/(1+((C/x)^D))), wherein A denotes the bottom plateau of the curve, B denotes the top plateau of the curve, C denotes the x value at the middle of the curve, D denotes the slope factor, x denotes the original known x values, and y denotes the original known y values. Data was fitted using the Levenburg Marquardt algorithm.

As for `COC(=O)N1c2ccc(-c3cnn(C4CCNCC4)c3)c(OCC3CCOCC3)c2CC[C@@H]1C` [I-451], the results for the IC50 in assay [1] and in assay [2] were 1000 to 10000 nM and 50 to 500 nM, respectively.
With `CC(=O)N1c2ccc(-c3cnn(CCS(C)(=O)=O)c3)c(OCC(=O)N(C)C)c2CC[C@@H]1C` [I-417], the 50% inhibitory concentration (IC50) in assay [1] lay in the range of 1000 to 10000 nM; in assay [2] it was 50 to 500 nM.
For the molecule `CC(=O)N1c2ccc(-c3cnn(C4CC4)c3)c(OCc3cccnc3)c2CC[C@@H]1C` [I-399], the IC50 in assay [1] was 1000 to 10000 nM; in assay [2], 50 to 500 nM.
Turning to `CC(=O)N1c2ccc(-c3cnn(C4CC4)c3)c(OCC(=O)N(C)C3CC3)c2CC[C@@H]1C` [I-6, (S)-2-(1-acetyl-6-(1-cyclopropyl-1H-pyrazol-4-yl)-2-methyl-1,2,3,4-tetrahydroquinolin-5-yloxy)-N-cyclopropyl-N-methylacetamide], the half-inhibitory concentration (IC50) in assay [1] was 1000 to 10000 nM; in assay [2], not below 500 nM.
For the molecule `CC(=O)N1c2ccc(-c3cnn(CC(C)(C)O)c3)c(OC[C@H]3CCC(=O)N3)c2CC[C@@H]1C` [I-433], the values for the 50% inhibitory concentration (IC50) in assay [1] and in assay [2] were 1000 to 10000 nM and 50 to 500 nM, respectively.
Regarding `CC(=O)N1c2cccc(OCC3CCCC3)c2CC[C@@H]1C` [I-607], the half-maximal inhibitory concentration (IC50) in assay [1] is not below 10000 nM; in assay [2], not below 500 nM.
With `CC(=O)N1c2ccc(-c3cnn(C4CC4)c3)c(O/C=C/Cl)c2CC[C@@H]1C` [I-277, (S,E)-1-(5-(2-chlorovinyloxy)-6-(1-cyclopropyl-1H-pyrazol-4-yl)-2-methyl-3,4-dihydroquinolin-1(2H)-yl)ethanone], the results for the IC50 in assay [1] and in assay [2] were 1000 to 10000 nM and 50 to 500 nM, respectively.
For `COC(=O)N1c2ccc(-c3cnn(C4CC4)c3)c(OCC(=O)N3CCOCC3)c2CC[C@@H]1C` [I-26, (S)-methyl 6-(1-cyclopropyl-1H-pyrazol-4-yl)-2-methyl-5-(2-morpholino-2-oxoethoxy)-3,4-dihydroquinoline-1(2H)-carboxylate] the same measures were 1000 to 10000 nM and 50 to 500 nM.
On to `CC(=O)N1c2ccc(-c3cnn(C4CC4)c3)c(Oc3nc(C)cc(C)n3)c2CC[C@@H]1C` [I-90, (S)-1-(6-(1-cyclopropyl-1H-pyrazol-4-yl)-5-(4,6-dimethylpyrimidin-2-yloxy)-2-methyl-3,4-dihydroquinolin-1 (2H)-yl)ethanone], for which the 50% inhibitory concentration (IC50) in assay [1] lay within 1000 to 10000 nM; in assay [2], 50 to 500 nM.
For `CCCOc1c(-c2cnn(CCS(C)(=O)=O)c2)ccc2c1CC[C@H](C)N2C(=O)OC` [I-441] the same measures were 1000 to 10000 nM and 50 to 500 nM.
Regarding `CC(=O)N1c2ccc(-c3cnn(C4CCNCC4)c3)c(OC[C@H]3CCC(=O)N3)c2CC[C@@H]1C` [I-435], the IC50 in assay [1] lay in the range of 1000 to 10000 nM; in assay [2] it was 50 to 500 nM.
On to `COC(=O)N1c2ccc(-c3cnn(C4CC4)c3)c(OC3CNC3)c2CC[C@@H]1C` [I-59, (S)-methyl 5-(azetidin-3-yloxy)-6-(1-cyclopropyl-1H-pyrazol-4-yl)-2-methyl-3,4-dihydroquinoline-1(2H)-carboxylate], for which the half-maximal inhibitory concentration (IC50) was 1000 to 10000 nM in assay [1] and not below 500 nM in assay [2].
As to `COC(=O)N1c2ccc(-c3cnn(C4CCNCC4)c3)c(OC[C@H]3CCNC3)c2CC[C@@H]1C` [I-477], the IC50 in assay [1] lay in the range of 1000 to 10000 nM; in assay [2], 50 to 500 nM.
For `CCCOc1c(-c2ccc(NS(C)(=O)=O)cc2)ccc2c1CC[C@H](C)N2C(C)=O` [I-494], the IC50 in assay [1] lay within 1000 to 10000 nM; in assay [2], 50 to 500 nM.
Consider `CC(=O)N1c2ccc(-c3cnn(C4CC4)c3)c(OC3COC3)c2CC[C@@H]1C` [I-384], for which the IC50 is 1000 to 10000 nM in assay [1] and 50 to 500 nM in assay [2].
Regarding `CC(=O)N1c2ccc(-c3cnn(C4CC4)c3)c(OCc3ccccn3)c2CC[C@@H]1C` [I-403], the IC50 in assay [1] was 1000 to 10000 nM; in assay [2], 50 to 500 nM.
With `CCCOc1c(-c2cccc(S(C)(=O)=O)c2)ccc2c1CC[C@H](C)N2C(C)=O` [I-492], the IC50 in assay [1] was 1000 to 10000 nM; in assay [2], 50 to 500 nM.
In the same order, the values of `CC(=O)N1c2ccc(-c3cnn(CC(C)(C)O)c3)c(OCC(C)C)c2CC[C@@H]1C` [I-421] are 1000 to 10000 nM and 50 to 500 nM.
As to `CC(=O)N1c2ccc(-c3cnn(CC(C)(C)O)c3)c(OCCN(C)S(C)(=O)=O)c2CC[C@@H]1C` [I-437], the half-inhibitory concentration (IC50) in assay [1] was in the range of 1000 to 10000 nM; in assay [2], 50 to 500 nM.
For `CC(=O)N1c2ccc(-c3ccc(N4CCCS4(=O)=O)cc3)c(OCC(=O)N(C)C)c2CC[C@@H]1C` [I-499], the IC50 is 1000 to 10000 nM in assay [1] and 50 to 500 nM in assay [2].
In the case of `CC(=O)N1c2ccc(-c3cnn(CCO)c3)c(OCCN(C)S(C)(=O)=O)c2CC[C@@H]1C` [I-438], the IC50 in assay [1] was 1000 to 10000 nM; in assay [2], 50 to 500 nM.
`CCCOc1c(-c2ccc3c(c2)CCN3S(C)(=O)=O)ccc2c1CC[C@H](C)N2C(C)=O` [I-500]: the concentration for half-maximal inhibition (IC50) was 1000 to 10000 nM in assay [1] and 50 to 500 nM in assay [2].
In the same order, the values of `CC(=O)N1c2ccc(-c3cnn(CCO)c3)c(OC[C@H]3CCNC3)c2CC[C@@H]1C` [I-440] are 1000 to 10000 nM and 50 to 500 nM.
For `COC(=O)N1c2ccc(-c3cnn(C4CC4)c3)c(OCCN3CCCS3(=O)=O)c2CC[C@@H]1C` [I-27, methyl (2S)-6-(1-cyclopropyl-1H-pyrazol-4-yl)-5-[2-(1,1-dioxo-1λ^6,2-thiazolidin-2-yl)ethoxy]-2-methyl-1,2,3,4-tetrahydroquinoline-1-carboxylate] the same measures were 1000 to 10000 nM and less than 50 nM.
For `CC(=O)N1c2ccc(-c3cnn(C4CC4)c3)c(OCC(N)=O)c2CC[C@@H]1C` [I-391], the figures for the IC50 in assay [1] and in assay [2] were 1000 to 10000 nM and not below 500 nM, respectively.
In the same order, the values of `COC(=O)N1c2ccc(-c3cnn(CCS(C)(=O)=O)c3)c(OCC(=O)N(C)C)c2CC[C@@H]1C` [I-452] are 1000 to 10000 nM and 50 to 500 nM.
In the case of `CC(=O)N1c2ccc(-c3cnn(CCS(C)(=O)=O)c3)c(OCCN(C)S(C)(=O)=O)c2CC[C@@H]1C` [I-436], the IC50 in assay [1] fell in the range of 1000 to 10000 nM; in assay [2] it was 50 to 500 nM.
As to `COC(=O)N1c2ccc(-c3cnn(C4CC4)c3)c(OCC(F)F)c2CC[C@@H]1C` [I-10, (S)-methyl 6-(1-cyclopropyl-1H-pyrazol-4-yl)-5-(2,2-difluoroethoxy)-2-methyl-3,4-dihydroquinoline-1(2H)-carboxylate], the IC50 in assay [1] is 1000 to 10000 nM; in assay [2], 50 to 500 nM.
For the molecule `CC(=O)N1c2ccc(-c3cnn(C4COC4)c3)c(Oc3nc4ccccc4o3)c2CC[C@@H]1C` [I-79, (S)-1-(5-(benzo[d]oxazol-2-yloxy)-2-methyl-6-(1-(oxetan-3-yl)-1H-pyrazol-4-yl)-3,4-dihydroquinolin-1(2H)-yl)ethanone], the IC50 in assay [1] lay within 100 to 1000 nM; in assay [2] it was 50 to 500 nM.
As for `COC(=O)N1c2ccc(-c3cnn(CCS(C)(=O)=O)c3)c(OC[C@H]3CCC(=O)N3)c2CC[C@@H]1C` [I-467], the half-inhibitory concentration (IC50) in assay [1] lay in the range of 1000 to 10000 nM; in assay [2], 50 to 500 nM.
For the molecule `COC(=O)N1c2ccc(-c3cnn(CCS(C)(=O)=O)c3)c(OCC(C)C)c2CC[C@@H]1C` [I-455], the half-maximal inhibitory concentration (IC50) in assay [1] lay within 1000 to 10000 nM; in assay [2], 50 to 500 nM.
On to `COC(=O)N1c2ccc(-c3cnn(CCS(C)(=O)=O)c3)c(OCC(=O)N3CCCC3)c2CC[C@@H]1C` [I-463], for which the IC50 lay within 1000 to 10000 nM in assay [1] and 50 to 500 nM in assay [2].
`COC(=O)N1c2ccc(-c3cnn(CC(C)(C)O)c3)c(OCC(=O)N(C)C)c2CC[C@@H]1C` [I-453]: the IC50 in assay [1] fell in the range of 1000 to 10000 nM; in assay [2] it was 50 to 500 nM.
On to `COC(=O)N1c2ccc(-c3cnn(C4CCNCC4)c3)c(OC[C@H]3CCC(=O)N3)c2CC[C@@H]1C` [I-470], for which the half-inhibitory concentration (IC50) lay in the range of 1000 to 10000 nM in assay [1] and 50 to 500 nM in assay [2].
On to `CC(=O)N1c2ccc(-c3cnn(C4CC4)c3)c(OCc3ccccc3)c2CC[C@@H]1C` [I-393], for which the half-maximal inhibitory concentration (IC50) was 1000 to 10000 nM in assay [1] and less than 50 nM in assay [2].
In the case of `CCCOc1c(-c2ccc(S(C)(=O)=O)cc2)ccc2c1CC[C@H](C)N2C(C)=O` [I-482], the half-maximal inhibitory concentration (IC50) in assay [1] is 1000 to 10000 nM; in assay [2], not below 500 nM.
For `CC(=O)N1c2ccc(-c3cnn(CC(C)(C)O)c3)c(OCC(=O)N3CCCC3)c2CC[C@@H]1C` [I-429] the same measures were 1000 to 10000 nM and 50 to 500 nM.
Regarding `CC(=O)N1c2ccc(-c3ccc(S(C)(=O)=O)cc3)c(OCC(=O)N(C)C)c2CC[C@@H]1C` [I-483], the IC50 in assay [1] was 1000 to 10000 nM; in assay [2] it was not below 500 nM.
Take `COC(=O)N1c2ccc(-c3cnn(CCS(C)(=O)=O)c3)c(OCC3CCOCC3)c2CC[C@@H]1C` [I-448]: the IC50 in assay [1] is 1000 to 10000 nM; in assay [2], 50 to 500 nM.
On to `COC(=O)N1c2ccc(-c3cnn(CC(C)(C)O)c3)c(OCC(=O)N3CCCC3)c2CC[C@@H]1C` [I-464], for which the IC50 in assay [1] lay within 1000 to 10000 nM; in assay [2], 50 to 500 nM.
